PubChem BioAssay (NCI)
Values joined by “and” are separate entries in the source; they are usually repeats but may differ in a detail not shown here. Equal entries are not always repeated.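 Assay format: 96-well plates, 48-hour exposure. At the GI50, growth is halved. TGI: concentration producing complete growth inhibition.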

Assays:
Experiment in all cases: inhibition of tumour cell growth, NCI panel, 48 h
[1] = tested on: MALME-3M melanoma
[2] = tested on: MCF7 breast
[3] = tested on: SW-620 colon
[4] = tested on: NCI-H460 lung
[5] = tested on: SK-MEL-2 melanoma
[6] = tested on: LOX IMVI melanoma
[7] = tested on: MOLT-4 leukemia
[8] = tested on: CCRF-CEM leukemia
[9] = tested on: HCC-2998 colon
[10] = tested on: A549 NSCLC
[11] = tested on: SN12C renal
[12] = tested on: UO-31 renal

Row | Compound | TGI [1] | GI50 [2] | TGI [2] | TGI [3] | TGI [4] | GI50 [5] | TGI [5] | TGI [6] | TGI [7] | TGI [8] | GI50 [9] | TGI [9] | GI50 [10] | TGI [10] | TGI [11] | TGI [12]
1 | CC1OC(OC2C(OC(=O)[C@]34CCC(C)(C)C[C@H]3C3=CC[C@@H]5[C@@]6(C)CC[C@H](OC7OC(C(=O)O)C(O)C(O)C7O)C(C)(C)[C@@H]6CC[C@@]5(C)[C@]3(C)C[C@H]4O)OCC(O)C2O)C(O)C(O)C1OC1OCC(O)C(O)C1O (stereo not given in full) | 27.8 µM and 25.6 µM | 14.4 µM and 5.24 µM | 29.4 µM and 17.8 µM | 32.8 µM and 27.7 µM | 48.3 µM and 33.7 µM | 15.4 µM and 3.47 µM | 30.4 µM and 12.4 µM | 30.9 µM and 29.5 µM | 34.6 µM and 74.8 µM | 36.1 µM and 61.2 µM | 4.02 µM and 1.4 µM | 12.7 µM and 3.07 µM | 11.8 µM and 5.48 µM | 25.3 µM and 20.4 µM | 16 µM and 6.05 µM | 24.1 µM and 20.1 µM
2 | CSC12c3cc(C)n(-c4ccc([N+](=O)[O-])cc4)c3CC(C)(C)CN1C(=O)C2Oc1ccccc1 (stereo not given) |  |  | > 100 µM | > 100 µM | > 100 µM |  | > 100 µM | > 100 µM | > 100 µM | > 100 µM |  | > 100 µM |  | > 100 µM | > 100 µM | > 100 µM
3 | CCn1cc2c(=O)n3ncn(-c4ccc(Br)cc4)c3nc2n1 | > 100 µM |  | > 100 µM | > 100 µM |  |  | > 100 µM |  | > 100 µM | > 100 µM |  | > 100 µM |  | > 100 µM | > 100 µM | > 100 µM
4 | O=c1nc2n3c4c(cccc4nc-2c(=O)[nH]1)CCC3 | 39.2 µM |  | > 100 µM | > 100 µM | > 100 µM |  | > 100 µM | > 100 µM | > 100 µM | > 100 µM |  | > 100 µM |  | > 100 µM | > 100 µM | > 100 µM
5 | CN(C)C(C1=C(O)C(c2ccccc2)N(c2ccccc2)C1=O)N1CCOCC1 (stereo not given) | > 10 µM |  | > 10 µM | > 10 µM | > 10 µM |  | > 10 µM | > 10 µM | > 10 µM | > 10 µM |  | > 10 µM |  | > 10 µM | > 10 µM | > 10 µM
6 | COc1cccc(/C=N/n2c(Cc3ccccc3)n[nH]c2=O)c1 | > 100 µM |  | > 100 µM | > 100 µM | > 100 µM |  | > 100 µM | > 100 µM | > 100 µM | > 100 µM |  | > 100 µM |  | > 100 µM | > 60.3 µM | > 100 µM
7 | Oc1c(Br)cc(/C=C/c2ccnc(/C=C/c3cc(Br)c(O)c(Br)c3)c2)cc1Br |  |  | 60.3 µM | > 100 µM | > 100 µM |  | 34.4 µM | > 100 µM | 45.8 µM | > 100 µM |  | > 100 µM |  | 77 µM | > 100 µM | 35.4 µM
8 | Cc1ccc2c(=O)cc(-c3sccc3C)[nH]c2n1 | > 69.1 µM |  | > 57.7 µM |  | > 79.8 µM |  | > 40 µM | > 38.1 µM | > 27.8 µM | > 24.4 µM |  | 7.13 µM |  |  | > 47.2 µM | 23.8 µM
9 | CCOCCOCCOCc1nc(C#N)c(N)o1 |  |  | > 100 µM | > 100 µM | > 100 µM |  | > 100 µM | > 100 µM | > 100 µM | > 100 µM |  | > 100 µM |  | > 100 µM | > 100 µM | > 100 µM
10 | COc1ccc2c(c1)Cc1c(NCCN(C)C)ccc(C(=O)NCCCN(C)CCCNC(=O)c3ccc(NCCN(C)C)c4c3Nc3ccc(OC)cc3C4)c1N2 | 0.209 µM |  | 0.615 µM | 8.65 µM | 0.175 µM |  | 0.226 µM | 0.766 µM | 2.62 µM | 5.49 µM |  | 0.168 µM |  | 0.512 µM | 0.624 µM | 14.2 µM
11 | O=C1/C(=C/c2cccc(Cl)c2)CCCc2ccccc21 | 33.8 µM |  | 27.4 µM | 33.9 µM | 31.2 µM |  | 31.2 µM | 32.8 µM | 53.7 µM | 30.4 µM |  | 32.5 µM |  | > 100 µM | 32.3 µM | 30.1 µM
12 | NC1N=C(c2ccc(Cl)cc2)C2=C(N1)c1ccccc1CC2 (stereo not given) | > 100 µM |  | > 46.8 µM | > 78.4 µM | > 100 µM |  | 46.6 µM | > 50.9 µM | > 31.4 µM | > 100 µM |  | 18.5 µM |  | > 80.7 µM | > 100 µM | > 88.7 µM
13 | CCN1CCC(O)(c2ccc(Oc3ccc(Cl)cc3)cc2)C(C(=O)c2ccc(Oc3ccc(Cl)cc3)cc2)C1 (stereo not given) | 35.6 µM |  | 19.9 µM | 50.9 µM | 14.9 µM |  | 36.9 µM | 16.5 µM | 43.9 µM | 20.9 µM |  | 25 µM |  | 20.3 µM | 26.9 µM | 28.1 µM
14 | CN=C1Nc2ccccc2C(=O)N2CSCC12 (stereo not given) | > 100 µM |  | > 100 µM | > 100 µM | > 100 µM |  | > 100 µM | > 100 µM | > 100 µM | > 100 µM |  | > 100 µM |  | > 100 µM | > 100 µM | > 100 µM
15 | O=c1c2cc(-c3ccccc3)cnc2sn1-c1ccc(Br)cc1 | > 100 µM |  | > 100 µM | > 100 µM | > 100 µM |  | > 100 µM |  | > 100 µM | > 100 µM |  | > 100 µM |  | > 100 µM | > 100 µM | > 100 µM
16 | N#CC(c1ccccc1)N(CCCCCCN(C(=O)c1ccccc1)C(C#N)c1ccccc1)C(=O)c1ccccc1 (stereo not given) | > 100 µM |  | > 100 µM | > 100 µM | 84.2 µM |  | 66.3 µM | > 100 µM | > 100 µM | > 100 µM |  | 48.1 µM |  | > 100 µM | > 100 µM | 46.1 µM
17 | CC1=NN(c2nc(N)nc(CN3CCOCC3)n2)C(C)(C)C1 |  |  | > 100 µM | > 100 µM | > 100 µM |  | > 100 µM | 28.5 µM | > 100 µM | 90.8 µM |  | > 100 µM |  | > 100 µM | > 100 µM | 33.3 µM
18 | COC(=O)[C@]12CC3C=CC1N(C3)C(CBr)c1c2n(S(=O)(=O)c2ccccc2)c2ccccc12 (stereo not given in full) | > 100 µM |  | > 100 µM | > 100 µM | > 100 µM |  | > 100 µM | > 100 µM |  | > 100 µM |  | > 100 µM |  | > 100 µM | > 100 µM | > 100 µM
